Article PMC8122956, “Development of a Robust High-Throughput Screening Platform for Inhibitors of the Striatal-Enriched Tyrosine Phosphatase (STEP)” (International Journal of Molecular Sciences, 2021)

Legend:
AD mice = system: AD mice; parameters: method as in PMID 25093460; details: cited from earlier work
full-length human STEP46 = molecular target: T1, full-length human STEP46 (Homo sapiens, UniProt P54829); assay: STEP46 biochemical inhibition assay (DiFMUP phosphatase fluorescence intensity assay); details: powder-confirmed hits, 10-pt dose-response, 0.5 nM STEP46, DiFMUP 3 μM, 20 min preincubation, pH 6.0, RT
T1 construct: Codon-optimized human full-length STEP46 cDNA was synthesized; His tag (pET-15b) (N); made in house; host or cells: E. coli BL21 (DE3)
T1 sequence (P54829 173-541 isoform P54829-3 limits assumed): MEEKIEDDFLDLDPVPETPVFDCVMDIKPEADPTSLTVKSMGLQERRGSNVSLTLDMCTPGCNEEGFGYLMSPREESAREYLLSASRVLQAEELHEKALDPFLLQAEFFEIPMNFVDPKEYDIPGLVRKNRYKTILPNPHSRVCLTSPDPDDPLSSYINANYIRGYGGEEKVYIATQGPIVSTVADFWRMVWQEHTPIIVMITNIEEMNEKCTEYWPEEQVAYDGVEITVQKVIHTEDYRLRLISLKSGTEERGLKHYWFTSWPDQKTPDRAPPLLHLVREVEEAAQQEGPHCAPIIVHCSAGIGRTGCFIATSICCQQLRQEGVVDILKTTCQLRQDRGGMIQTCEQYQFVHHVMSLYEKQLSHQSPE
Excerpt: Employing the established STEP46 DiFMUP assay to determine enzymatic activity, we tested the 72 confirmed hits in 10-pt dose-response biochemical inhibition experiments. […] This rate of biochemically active compounds from confirmed PTS hits was in agreement with our prior experience from a similar PTS screening campaign against the SHP2 phosphatase (unpublished data). Next, we obtained commercial dry powders of the 17 biochemically active hits to confirm their activity from pure, fresh material. Powders were quality controlled using standard ^1H-NMR and LC-MS methods and repurified in cases where purity was determined to be below 95%. Pure powders were then retested in 10-pt dose-response STEP46 inhibition assays. Activity could be confirmed for 10 of the 17 powders.
(§1) Hit compounds were tested at room temperature (RT) in a 384-well plate format standard phosphatase fluorescence intensity assay using DiFMUP as a substrate and a total reaction volume of 25 μL. Compounds or vehicle (DMSO) were spotted in triplicate into a black Greiner FLUOTRAC 200 384-well microplate for a 10-point dose-response assay using the Echo 555 liquid handler. PTP working solutions were prepared at a 0.625 nM concentration (for a final concentration of 0.5 nM) in buffer containing 50 mM Bis-Tris pH 6.0, 50 mM NaCl, 5 mM DTT, and 0.01% Tween 20. DiFMUP working solutions at 5X final concentration were prepared in 50 mM Bis-Tris pH 6.0, 50 mM NaCl, and 0.01% Tween 20. PTP working solution (20 μL) was dispensed into the microplate and incubated with compound for 20 min at RT. […] The reaction was initiated by addition of 5 μL DiFMUP working solutions. Fluorescence intensity was measured in a kinetic mode as described above. IC50 values were calculated from the corrected initial rates by nonlinear regression using the program GraphPad Prism (version 8, GraphPad Software, Inc., San Diego, CA, USA).

[1] = molecular target: T2, Human PTP1B catalytic domain (1-300) (Homo sapiens, UniProt P18031); assay: PTP1B biochemical inhibition assay (DiFMUP phosphatase fluorescence intensity assay); details: powder-confirmed hits, 10-pt dose-response, 0.5 nM PTP1B, DiFMUP 25 μM, 20 min preincubation, pH 6.0, RT
T2 construct: Human PTP1B catalytic domain (1–300) was cloned into PET-15b; His tag (pET-15b) (N); made in house; host or cells: E. coli (as for STEP46, BL21 (DE3))
T2 sequence (P18031 1-300): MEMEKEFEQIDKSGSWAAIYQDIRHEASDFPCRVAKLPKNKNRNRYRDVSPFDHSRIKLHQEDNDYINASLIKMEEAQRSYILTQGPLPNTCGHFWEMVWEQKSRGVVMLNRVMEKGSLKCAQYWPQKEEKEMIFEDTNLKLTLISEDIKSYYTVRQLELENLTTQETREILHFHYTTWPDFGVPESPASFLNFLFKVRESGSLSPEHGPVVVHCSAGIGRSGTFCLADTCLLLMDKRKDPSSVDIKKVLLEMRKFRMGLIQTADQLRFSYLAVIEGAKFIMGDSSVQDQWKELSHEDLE
Method: One of the major issues in prior STEP HTS campaigns using phosphatase activity as a readout was the lack of potent chemical matter with relative selectivity for STEP (PubChem AID: 588,619 and our unpublished data). […] For these assays, we expressed and purified the catalytic domain of PTP1B (1-300) using an approach similar to the one described for STEP46 above. The enzymatic activity of the highly pure PTP1B was assessed by adapting the DiFMUP phosphatase assay. Similar to STEP46, a concentration of 0.5 nM PTP1B was found optimal for kinetic experiments. […] Using DiFMUP at that concentration, we tested all 10 powder-confirmed hits in 10-pt dose-response inhibition assays against PTP1B.
as §1

[2] = molecular target: T2, Human PTP1B catalytic domain (1-300); assay: PTP1B Michaelis-Menten kinetic assay with DiFMUP; assay type: biochemical; details: PTP1B 0.5 nM
Method: Human STEP46 and PTP1B activity was measured at room temperature (RT) in a 384-well plate format standard phosphatase fluorescence intensity assay using DiFMUP as a substrate and a total reaction volume of 25 μL. PTP working solutions were prepared at a 0.625 nM concentration (for a final concentration of 0.5 nM) in buffer containing 50 mM Bis-Tris pH 6.0, 50 mM NaCl, 5 mM DTT, and 0.01% Tween® 20. DiFMUP working solutions at 5X final concentration were prepared in 50 mM Bis-Tris pH 6.0, 50 mM NaCl, and 0.01% Tween 20. […] Fluorescence intensity was measured in kinetic mode (every minute for 10 min) using a Tecan Spark® Multimode Microplate Reader (Tecan, Groedig, Austria) with an excitation wavelength of 360 nm and an emission wavelength of 460 nm. The initial rates were determined from the linear progress curves of the PTP reaction. […] Michaelis–Menten plots were generated for each PTP construct, and Michaelis–Menten constants (Km) were calculated using the program GraphPad Prism (version 8, GraphPad Software, Inc., San Diego, CA, USA).

SMILES | Effect on cognitive deficits in AD mice (AD mice) | IC50 (full-length human STEP46) [µM] | IC50 [1] [µM] | Km [2] [µM]
Nc1cc(C(F)(F)F)cc2c1SSSSS2 [TC-2153] | effectively reversed cognitive deficits |  |  | 
Nc1ccc(NCC2CCCO2)c(C(=O)O)c1 (stereo not shown) [SBI-8929] |  | 33 | 20 | 
Cc1c2c(=O)n(-c3nc4ccccc4s3)[nH]c2cc(=O)n1CCC(C)C [SBI-0743] |  | 5.5 | 22 | 
Cc1cc(=O)oc2c(F)c(OP(=O)(O)O)c(F)cc12 [DiFMUP, 6,8-difluoro-4-methylumbelliferyl phosphate] |  |  |  | 25
Nc1oc2cc(O)ccc2c(=O)c1-c1nc2ccccc2s1 [SBI-6066] |  | 5 | > 100 | 
Cc1cc(C)cc(C(=O)Nc2ccc(-c3nc4ccccc4[nH]3)cc2)c1 [SBI-6083] |  | 5.4 | > 100 | 
NC(=O)c1cccc(NC(=O)c2cc3c(ccc4ccccc43)o2)c1 [SBI-2136] |  | 5.3 | 14 | 
N#Cc1sc2nc(-c3ccc4c(c3)OCO4)ccc2c1N [SBI-7297] |  | 32 | > 100 | 
O=C(CSc1c[nH]nn1)Nc1ccc(/C=C/c2ccccc2)cc1 [SBI-1359] |  | 7 | 28 | 
COc1ccccc1-c1ccc2c(N)c(C#N)sc2n1 [SBI-8771] |  | 16 | 79 | 
O=C(Cc1ccc(Cl)cc1)Nc1ccc(C(=O)Nc2cccc(O)c2)cc1 [SBI-6727] |  | 18 | 57 | 
Cc1ccc(Nc2nc(CSc3nnnn3-c3ccccc3)cc(=O)[nH]2)cc1 [SBI-0738] |  | 5.7 | 6.1 | 
